≈ marks a conversion by molar mass, not a printed value. Like-named read-outs stand apart in the source and are kept apart here.
Key:
Vero cells = assay: MTT cytotoxicity assay; assay type: cell-based, African green monkey; details: Vero cells, MTT
Description: (§1) All the cell lines were cultured at 37°C with 5% CO2. […] ACV-resistant HSV-1 was generated in our previous study.
(§2) The cells were washed with PBS, added with 0.1 mg/mL MTT reagent [3-(4,5-dimethylthiazol-2-yl)-2,5-diphenyl tetrazolium bromide; Sigma] and incubated at 37°C for 5 hours. After incubation, MTT reagent was removed and DMSO was added to each well. The absorbance was then determined by ELISA reader (SpectraMAX 340, Molecular Devices) at the wavelength of 550 nm.

HSV-1 [1] = assay: Plaque reduction assay; assay type: cell-based; details: for EC50: read-out: EC50 HSV-1
Description: (§3) African green monkey kidney cells (Vero, ATCC CCL-81) and human epithelial carcinoma cells (HEp-2, ATCC CCL-23 and A549, ATCC CCL-185) were maintained in Dulbecco’s modified Eagle’s medium (DMEM), modified Eagle’s medium (MEM) and RPMI-1640 medium, respectively, supplemented with 10% fetal bovine serum (Gibco), 100 units/mL penicillin, and 100 μg/mL streptomycin. All the cell lines were cultured at 37°C with 5% CO2. HSV-1F (ATCC VR-733) and HSV-2G (ATCC VR-734) stocks were propagated in Vero cells, aliquoted and stored at -80°C. ACV-resistant HSV-1 was generated in our previous study.
(§4) 1X 10^6 Vero cells were seeded onto 6-well culture plates for 24 hours and infected with 100 pfu/well virus at 37°C for 1 hour. […] After 3 days, the cells were fixed with 3.7% formaldehyde and stained with crystal violet. The plaques were counted.

HSV-2 = assay: Plaque reduction assay; assay type: cell-based; details: for EC50: read-out: EC50 HSV-2
Description: as §3, §4

MTT cytotoxicity assay = assay type: cell-based, African green monkey; details: African green monkey
Description: as §1, §2

HSV-1 [2] = assay: Virus pre-treatment assay (plaque assay); assay type: cell-based; details: 100 pfu HSV-1 pretreated, Vero cells, Fig. 9A
Description: After incubation, HCWEs-pretreated cells were washed with PBS and then infected with 100 pfu HSV. The inhibitory activities were analyzed by plaque assay. […] After 3 hours of incubation, 1X10^6 Vero cells were infected with HCWEs-pretreated virus and then analyzed by plaque assay.

HSV-1 [3] = assay: Virus binding to Vero cells, Western blot of cell-bound virus gD; assay type: cell-based; details: 1 m.o.i., 4°C
[4] = test system: Acyclovir-resistant HSV-1 (HSV-AR); assay: microbe, parasite or virus in culture; assay type: cell-based; details: Human alphaherpesvirus 1, Vero, read-out: EC50 HSV-AR
Description: as §3, §4

NF-κB = NF-κB translocation analysis by Western blot of nuclear fractions; assay type: cell-based; details: HSV-1 infection, nuclear fraction at 3 h.p.i.
Source text: During HSV infection, there are two waves of NF-κB activation. The first-wave of NF-κB activation could enhance ICP0 transcription via binding onto viral ICP0 promoter while the second-wave of NF-κB activation could prevent host cells from apoptosis. […] The nuclear fractions were extracted and applied to NF-κB translocation analysis by Western blot assay. […] After transfection, luciferase activity of pGL-ICP0 Wt transfected cells increased up to 3,000-fold compared with the vector control, pGL, in HSV-1 infection. […] Although it is well known the expression of ICP0 is regulated by NF-κB, the exact NF-κB binding site on ICP0 promoter is not identified yet. […] Only one NF-κB binding site was predicted within the HSV-1 ICP0 promoter. To determine whether the HCWEs-mediated ICP0 suppression was NF-κB-dependent, the predicted NF-κB binding site within pGL-ICP0 Wt was mutated by PCR-based mutagenesis and the resulting plasmid was named as pGL-ICP0 Mut. […] The results implied that HSV-1 ICP0 promoter activity was at least partly regulated by NF-κB.

[5] = Vero cells, MTT, read-out: CC50
[6] = Human alphaherpesvirus 1, Vero cells
[7] = Human alphaherpesvirus 2, Vero cells

SMILES	CC50 at 3 days (MTT cytotoxicity assay; [5])	EC50 (HSV-1 [1]; [6])	EC50 (HSV-2; [7])	inhibition of HSV-1 by pretreatment of virus with pure compound (HSV-1 [2])	SI HSV-1 (CC50/EC50) (HSV-1 [1])	cell binding ability of HSV-1 (Western blot) (HSV-1 [3])	further results
O=c1c(O[C@@H]2O[C@H](CO)[C@H](O)[C@H](O)[C@H]2O)c(-c2ccc(O)c(O)c2)oc2cc(O)cc(O)c12 [Hyperin, hyperin]	–	–	–	–	–	–	CC50 (Vero cells): >500 µg/mL; EC50 HSV-1 (HSV-1 [1]; Vero cells): >500 µg/mL; EC50 HSV-2 (HSV-2; Vero cells): >500 µg/mL
C[C@@H]1O[C@@H](Oc2c(-c3ccc(O)c(O)c3)oc3cc(O)cc(O)c3c2=O)[C@H](O)[C@H](O)[C@H]1O [Quercitrin, quercitrin]	142 µg/mL (≈ 317 µM)	–	–	–	–	–	EC50 (HSV-1 [1]; Human alphaherpesvirus 1, Vero): > 142 µg/mL; EC50 (HSV-2; Human alphaherpesvirus 2, Vero): > 142 µg/mL
O=C(/C=C/c1ccc(O)c(O)c1)O[C@@H]1C[C@](O)(C(=O)O)C[C@@H](O)[C@H]1O [Chlorogenic acid, chlorogenic acid]	1240 µg/mL (≈ 3510 µM)	> 1240 µg/mL	> 1240 µg/mL	–	–	–	–
C[C@@H]1O[C@@H](OC[C@H]2O[C@@H](Oc3c(-c4ccc(O)c(O)c4)oc4cc(O)cc(O)c4c3=O)[C@H](O)[C@@H](O)[C@@H]2O)[C@H](O)[C@H](O)[C@H]1O [Rutin, rutin]	–	188 µg/mL (≈ 307 µM)	169 µg/mL (≈ 278 µM)	not	3.745	not	CC50 at 3 days (MTT cytotoxicity assay): 702 µg/mL (≈ 1150 µM); SI HSV-2 (CC50/EC50) (HSV-2): 4.146
Nc1nc2c(ncn2COCCO)c(=O)[nH]1 [Acyclovir, acyclovir, reference compound]	> 450 µg/mL	0.74 µg/mL (≈ 3.29 µM)	0.82 µg/mL (≈ 3.64 µM)	–	–	–	EC50 [4]: 14 µg/mL (≈ 62.3 µM)
O=c1c(O[C@@H]2O[C@H](CO)[C@@H](O)[C@H](O)[C@H]2O)c(-c2ccc(O)c(O)c2)oc2cc(O)cc(O)c12 [Isoquercitrin, isoquercitrin]	> 200 µg/mL	0.42 µg/mL (≈ 0.904 µM)	0.39 µg/mL (≈ 0.84 µM)	not	>476.2	not	HSV-induced NF-κB translocation / activation (NF-κB): inhibited NF-κB activation
O=c1c(O)c(-c2ccc(O)c(O)c2)oc2cc(O)cc(O)c12 [Quercetin, quercetin]	486 µg/mL (≈ 1610 µM)	52.9 µg/mL (≈ 175 µM)	70 µg/mL (≈ 232 µM)	targeted virus particles directly and inhibited viral entry	9.18	inhibited the binding of HSV-1 onto host cells	SI HSV-2 (CC50/EC50) (HSV-2): 6.94; HSV-induced NF-κB translocation / activation (NF-κB): inhibited NF-κB activation

Reference: publication PMC4314066, “Houttuynia cordata Targets the Beginning Stage of Herpes Simplex Virus Infection” (PLoS ONE, 2015)
